Some test systems named below: RXF 393 renal; MCF7 breast; HOP-62 NSCLC; HOP-92 NSCLC; MDA-MB-435; IGROV1 ovarian; LOX IMVI melanoma; HL-60(TB) leukemia.
Holding throughout (assay): NCI anticancer screen, dose series, 48 h

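Step 1: Grow cells in 96-well plates. Step 2: Expose to compound for 48 hours at 5 concentrations. Step 3: Interpolate endpoints linearly; if unreached, use highest concentration. GI50 is the concentration that inhibits growth by half. The concentration for full growth arrest is given as TGI.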 *1 amine or outer side, *2 acyl side, *3 side chain or, on linkers, in order; H or OH if unused. Where a SMILES comes first, the peptide text is derived from it. [ ]: non-standard residue; d: D form. The star is where a group is joined. ξ: configuration not given here. X15 = CCN(CC)c1ccc2cc(N*)c(=O)oc2c1; dIva = CC[C@@](C)(N)C(=O)O; X14 = O=C(OCCN[*:1])[*:2]; Aib = CC(C)(N)C(=O)O; ξP = O=C(O)C1CCCN1; βAla = NCCC(=O)O

In the case of `CC12CC(OC(=O)[C@]1(C)O)[C@@H]([C@]1(O)CC[C@H]3[C@@H]4C[C@H]5O[C@]56[C@@H](O)C=CC(=O)[C@]6(C)[C@H]4CC[C@@]31C)C2` (some centres not stated), the TGI with RXF 393 renal is 8.76 µM; in the test on MCF7 breast, 17.2 µM; in the test with HOP-62 NSCLC, over 100 µM; in the test with HOP-92 NSCLC, 8.08 µM; in the test with MDA-MB-435, 29.4 µM; in the test with IGROV1 ovarian, 35.1 µM. Also, the TGI in the test with LOX IMVI melanoma amounted to 15.9 µM.

On to `COc1ccc2c(c1)C(C)Cc1c(Cl)nc(C)nc1N2C` (configuration not stated), for which the GI50 with RXF 393 renal was 2.78 µM; in the test with MCF7 breast, 0.791 µM; in the test on HOP-62 NSCLC it was 2.22 µM; in the test with HOP-92 NSCLC it was 3.95 µM; in the test on HL-60(TB) leukemia it was 2.54 µM; with IGROV1 ovarian it was 4.41 µM. Moreover, the GI50 in the test on LOX IMVI melanoma is 3.12 µM. Further, the TGI with RXF 393 renal was 20.8 µM; with MCF7 breast, 32.7 µM; with HOP-62 NSCLC, 36.3 µM; with HOP-92 NSCLC, 29.5 µM; with HL-60(TB) leukemia, over 100 µM; in the test with IGROV1 ovarian it was over 100 µM. For the same compound, the TGI in the test with LOX IMVI melanoma was 23.9 µM.

For the compound `Cc1c(Cl)cccc1NC1=C(Cl)C(=O)N(Cc2ccccc2)C1=O`, the GI50 with RXF 393 renal is 12 µM; with MCF7 breast, 25.3 µM; in the test with HOP-62 NSCLC, 7.65 µM; with HOP-92 NSCLC, 1.56 µM; in the test on MDA-MB-435, 8.55 µM; in the test on IGROV1 ovarian, 19.7 µM. The GI50 with LOX IMVI melanoma was 4.83 µM. Further, the TGI in the test on RXF 393 renal turned out to be 32.7 µM; in the test on MCF7 breast, 59 µM; in the test with HOP-62 NSCLC, 20.4 µM; in the test with HOP-92 NSCLC it was 14.9 µM; in the test with MDA-MB-435 it was 20.8 µM; in the test with IGROV1 ovarian, 56.5 µM. This compound also returned a TGI in the test on LOX IMVI melanoma of 47.8 µM.

With `CCN(CC)c1ccc2cc(NC(=O)OCCNC(=O)CCNC(=O)[C@H](CC(C)C)NC(=O)C(C)(C)NC(=O)C(C)(C)NC(=O)[C@H](CC(C)C)NC(=O)CCNC(=O)C(C)(C)NC(=O)[C@H](CC(C)C)NC(=O)CCNC(=O)[C@@](C)(CC)NC(=O)[C@H](C)NC(=O)CCNC(=O)C(C)(C)NC(=O)[C@H](C)NC(=O)[C@@H]3CCCN3C(=O)[C@@](C)(CC)NC(=O)[C@H](Cc3ccccc3)NC(=O)C3CCCN3C(=O)C(C)(C)NC(=O)C3CCCN3C(=O)C(C)(C)NC(C)=O)c(=O)oc2c1` (some centres not stated) (Ac-[Aib][ξP][Aib][ξP]F[dIva]PA[Aib][βAla]A[dIva][βAla]L[Aib][βAla]L[Aib][Aib]L[βAla][X14]-X15), the GI50 in the test with RXF 393 renal was 0.0049 µM; in the test with MCF7 breast it was 0.00313 µM; in the test with HOP-62 NSCLC, 0.00385 µM; in the test with HOP-92 NSCLC, 0.0256 µM; in the test on MDA-MB-435 it was 0.00353 µM; in the test on HL-60(TB) leukemia, 0.00316 µM. Also, the GI50 in the test with LOX IMVI melanoma was 0.00192 µM. The TGI in the test on RXF 393 renal was determined as 0.0173 µM; in the test on MCF7 breast, 0.0286 µM; in the test on HOP-62 NSCLC, 0.021 µM; in the test with HOP-92 NSCLC, 0.0709 µM; in the test on MDA-MB-435 it was 0.0252 µM; in the test on HL-60(TB) leukemia it was 0.011 µM. Moreover, in the test on LOX IMVI melanoma, the TGI was 0.00384 µM.

`CCN1C(=O)N(CC)C2C1NN=c1s/c(=C\c3cc4ccccc4[nH]3)c(=O)n12` (configuration not stated): the GI50 with RXF 393 renal was under 0.0187 µM; in the test with MCF7 breast, under 0.01 µM; with HOP-62 NSCLC it was 0.0412 µM; in the test with HOP-92 NSCLC, 0.0681 µM; with HL-60(TB) leukemia, under 0.0117 µM; with IGROV1 ovarian, 0.0139 µM. Moreover, in the test on LOX IMVI melanoma, the GI50 is under 0.01 µM. Moreover, the TGI was 11.6 µM in the test on RXF 393 renal; 14.6 µM with MCF7 breast; 18.7 µM in the test on HOP-62 NSCLC; 6.28 µM in the test on HOP-92 NSCLC; under 0.0191 µM in the test on HL-60(TB) leukemia; 12.2 µM in the test on IGROV1 ovarian. The compound also gave a TGI in the test with LOX IMVI melanoma of over 100 µM.

As to `Nc1n[nH]c2cccc(C#Cc3cccc(C(=O)Nc4cc(CN5CCOCC5)cc(C(F)(F)F)c4)c3)c12`, the GI50 was 2.21 µM with RXF 393 renal; 3.28 µM with MCF7 breast; 4.5 µM in the test on HOP-62 NSCLC; 2.78 µM with HOP-92 NSCLC; 3.46 µM with MDA-MB-435; 3.23 µM in the test with IGROV1 ovarian. In addition, the GI50 in the test on LOX IMVI melanoma is 1.87 µM. Moreover, the TGI with RXF 393 renal was determined as 7.92 µM; with MCF7 breast, 15.6 µM; in the test on HOP-62 NSCLC it was 18.1 µM; with HOP-92 NSCLC, 9.61 µM; with MDA-MB-435, 15.2 µM; with IGROV1 ovarian, 11.7 µM. Further, the TGI in the test on LOX IMVI melanoma amounted to 5.63 µM.

Take `CC(C)N1C(NNC(=O)c2cnccn2)=NS(=O)(=O)c2ccccc21`: the GI50 in the test with RXF 393 renal, in the test with MCF7 breast, in the test with MDA-MB-435, with HL-60(TB) leukemia, with IGROV1 ovarian and with LOX IMVI melanoma was over 100 µM in each case. Moreover, the TGI in the test on RXF 393 renal, in the test on MCF7 breast, in the test with MDA-MB-435, in the test with HL-60(TB) leukemia, in the test on IGROV1 ovarian and in the test on LOX IMVI melanoma was over 100 µM each time.

On to `Cc1cn2c(/C=N/Nc3ccccn3)c(-c3ccc(Cl)c([N+](=O)[O-])c3)nc2s1`, for which the GI50 with MCF7 breast is 3.27 µM; in the test with HOP-62 NSCLC it was 10.7 µM; with HOP-92 NSCLC it was 12.9 µM; with MDA-MB-435, 30.3 µM; in the test on HL-60(TB) leukemia, over 50 µM; in the test on IGROV1 ovarian it was 5.62 µM. Besides, in the test on LOX IMVI melanoma, the GI50 is 8.03 µM. Moreover, the TGI with MCF7 breast is over 50 µM; with HOP-62 NSCLC it was 18.9 µM; with HOP-92 NSCLC, over 50 µM; in the test with MDA-MB-435 it was over 50 µM; with HL-60(TB) leukemia, over 50 µM; with IGROV1 ovarian, 21.8 µM. For the same compound, the TGI in the test on LOX IMVI melanoma worked out at 16.5 µM.

For `COCCNc1cc(NC(=O)N2CCCc3cc(CN4CCN(C)CC4=O)c(C=O)nc32)ncc1C#N`, the GI50 in the test on MCF7 breast was 40.4 µM; in the test with HOP-62 NSCLC, over 50 µM; with HOP-92 NSCLC, 1.59 µM; in the test on MDA-MB-435 it was over 50 µM; in the test with HL-60(TB) leukemia, over 50 µM; in the test on IGROV1 ovarian, over 50 µM. In addition, the GI50 with LOX IMVI melanoma is over 50 µM. For the same compound, the TGI is over 50 µM in the test with MCF7 breast; over 50 µM with HOP-62 NSCLC; 21.6 µM with HOP-92 NSCLC; over 50 µM in the test on MDA-MB-435; over 50 µM in the test with HL-60(TB) leukemia; over 50 µM in the test with IGROV1 ovarian. Also, in the test with LOX IMVI melanoma, the TGI is over 50 µM.

For the origin of these results see PubChem BioAssay (NCI).
